Measured values from the pKa sets of Baltruschat and Czodrowski (2020).
Where “and” joins values, the source holds several entries; their conditions need not be identical. Equal entries are not always repeated. Where a SMILES comes first, the peptide text is derived from it. [ ]: non-standard residue; d: D form. pGlu = O=C1CC[C@@H](C(=O)O)N1

Conditions: acidic group

| SMILES | pKa |
| --- | --- |
| O=C([O-])[C@H](NCC[NH2+][C@@H](C(=O)[O-])c1ccccc1O)c1ccccc1O | 8.79 |
| CC1(C)S[C@H]2C(C(=O)[O-])[NH+]=C(CCCC([NH3+])C(=O)[O-])N2C1C(=O)O (stereo partly specified) | 3.1 |
| O=C(Nc1ccccc1)ONC(=O)c1ccccc1 | 6.4 |
| CCCCCC[NH2+]CCC(=O)O | 3.61 |
| CS(=O)(=O)NC(N)=O | 5.1 |
| O=[N+]([O-])C(CO)CO | 9.07 |
| C/C(C#[N+][O-])=N\O | 8.8 |
| Cc1ccc(C(=O)C(=O)O)cc1C | 1.36 |
| Oc1ccc(-c2ccccc2)cc1 | 9.47 |
| Cc1cc(C)c(C)c(O)c1 | 10.6 |
| CCCCC(CC)C(=O)O[C@H]1O[C@@H](C(=O)O)[C@H](O)[C@@H](O)[C@@H]1O (stereo partly specified) | 3.08 |
| [NH3+]CCCC(=O)O | 4.06 |
| [N-]=[N+]=Nc1ncnc2nc[nH]c12 | 7.6 |
| Cc1cc(CO)c(O)c(CO)c1 | 9.92 |
| O/C(=C/c1ccncc1)c1ccccc1 | 10.3 |
| CC(=O)C(C(C)=O)C(C)C | 12.8 |
| C=C(C)/C=C(\C)O | 10.4 |
| CC(=O)CC(N)=O | 10.4 |
| O=C(/C=N/O)c1ccccc1 | 8.31 |
| CC(C)(C)CC(=O)O | 5.01 |
| Cc1cc(C#N)cc[n+]1O | -0.67 |
| C[n+]1cccc2c3ccccc3[nH]c21 | 7.4 |

| SMILES | pKa |
| --- | --- |
| [NH3+]CC[SeH] | 5 |
| O=C(O)c1ccnnc1 | 2.8 |
| COC(=O)[n+]1ccc(C)cc1 | 6.15 |
| CC(C)CCC(=O)O | 4.84 |
| O=[N+]([O-])c1cccc(NS(=O)(=O)c2ccccc2)c1 | 6.91 |
| CC(=O)c1cc(C(=O)c2ccccc2)n[nH]1 | 9.01 |
| C=CCC1(CC=C)SC(=O)NC1=O | 6.1 |
| CNc1nnc(S(N)(=O)=O)s1 | 7.8 |
| O=C(O)Cn1ncnn1 | 2.12 |
| Cc1cccc(-c2nnn[nH]2)c1 | 4.15 |
| Oc1cccc[n+]1OCc1ccccc1 | -1.7 |
| CCCCCCP(=O)(CCCCCC)CCCCCC | 12.8 |
| N#CC(C#N)=NNc1cccc(Cl)c1Cl | 5.15 |
| CCC(C(=O)O)C(=O)N1CCCCC1 (stereo unspecified) | 3.86 |
| O=C(O)c1cc2ccccc2s1 | 3.1 |
| Cc1ccccc1NN=C(C#N)C#N | 6.9 |
| CC(Br)[N+](=O)[O-] (stereo unspecified) | 7.17 |
| O=C1c2ccccc2C(=O)C1Cc1ccccc1 | 5.9 |
| COC(=O)C[C@@H]1[C@@H](C(=O)O)[NH2+]C[C@H]1C(C)O (stereo partly specified) | 2.4 |
| O=c1cc(-c2ccccc2)oc2c(O)cccc12 | 7.82 |
| O=C1COCC(=O)C1=O | 7.62 |
| NS(=O)(=O)c1cccc([N+](=O)[O-])c1 | 9.19 |

| SMILES | pKa |
| --- | --- |
| CCc1cc(C(=O)O)cs1 | 4.19 |
| O=[N+]([O-])c1ccc(/C(=N\O)c2ccccc2)cc1 | 10.8 |
| O=C1C(O)=C(Cc2ccccc2)C(=O)c2ccccc21 | 4.9 |
| CC(c1cccc(F)c1)[N+](=O)[O-] (stereo unspecified) | 7.05 |
| CC(=O)/C(=N\O)C(C)C | 9.5 |
| CC(I)C(=O)O (stereo unspecified) | 3.21 |
| CCn1cccc(O)c1=O | 8.99 |
| O=C1C=CC(=O)c2c(O)cccc21 | 8.7 |
| Cc1cccc([N+](=O)[O-])c1C(=O)O | 2.13 |
| CC(=O)S | 3.71 |
| CCOC(=O)c1ccccc1-n1nc(O)cc1-c1ccccc1 | 12.4 |
| CCN(CC)C(=S)NC(=O)c1ccc(C)cc1 | 8.77 |
| O=C1COC=C([O-])C1=O | 10.5 |
| COCCNC(=S)S | 2.85 |
| CC(=O)C1=CC=CC1 | 8.84 |
| O=P([O-])(O)c1cn2c([nH+]1)[C@@H](O)[C@H](O)[C@@H](O)[C@@H]2CO | 4.84 |
| Cc1cccc(C(=O)O)c1I | 2.92 |
| O=C(CC(=O)c1ccc([N+](=O)[O-])cc1)Nc1ccccc1 | 8.7 |
| COc1cc[n+](O)cc1 | 2.05 |
| [NH3+]C(CCc1ccc([N+](=O)[O-])cc1)C(=O)O (stereo unspecified) | 3.05 |
| O=C(O)/C(I)=C\c1ccccc1 | 2.24 |
| Oc1ccc2nc3ccccc3cc2c1 | 8.81 |

| SMILES | pKa |
| --- | --- |
| CC(=O)CCC(=O)O | 4.63 |
| C[C@H](NC(=O)[C@H](CCC(N)=O)NC(=O)[C@@H]1CCC(=O)N1)C(=O)O ([pGlu]-Gln-Ala-OH) | 3.67 |
| Cn1c[nH+]cc1C[C@H]([NH3+])C(=O)O | 1.84 |
| CC(C)(C)N(O)C(=O)c1ccccc1 | 10.1 |
| CSc1nc2ncncc2[nH]1 | 7.67 |
| O/N=C(/NO)c1ccccc1 | 10.7 |
| C[Si](C)(C)c1ccc(C(=O)O)cc1 | 4.27 |
| O=C(O)[C@@H]1O[C@H](Oc2c[nH+]c3ccccc3c2)[C@@H](O)[C@H](O)[C@H]1O | 3 |
| O=C(c1ccccc1)c1cccc([N+](=O)[O-])c1C(=O)O | 2.39 |
| Cc1cc(Cl)ccc1C(=O)O | 3.75 |
| CCC1C(=O)COC1=O (stereo unspecified) | 4.29 |
| C[Si](C)(C)CCC(=O)O | 4.91 |
| Nc1n[nH]c(N)c1/N=N/c1ccc(O)cc1 | 7.81 |
| O=Cc1c(O)cccc1Cl | 8.26 |
| O=[N+]([O-])c1n[nH]c(-n2cnc(Br)n2)n1 | 1.63 |
| O=C(O)CCP | 4.23 |
| [NH3+]Cc1ccc(F)c(O)c1 | 8 |
| CC(=O)[n+]1ccc(N)cc1 | 9.15 |
| COc1ccccc1C(=O)NO | 8.9 |

Same assay, conditions: basic group

| SMILES | pKa |
| --- | --- |
| O=C([O-])[C@H](NCC[NH2+][C@@H](C(=O)[O-])c1ccccc1O)c1ccccc1O | 6.33 |
| N#CCCNc1ccccc1 | 4.5 |
| C=CCC(C)(O)CN(CC)CC (stereo unspecified) | 9.71 |
| NC(CC(=O)[O-])c1ccccn1 (stereo unspecified) | 9.22 |
| CC1CN=C(C(C)(C)C)S1 (stereo unspecified) | 5.02 |
| [O-][n+]1cccc2ccccc21 | 0.7 |
| CCCCNC | 10.8 |
| Cc1nc2cc(C(=O)[O-])ccc2[nH]1 | 6 |
| CC(=O)c1ccccc1 | 18.3 |
| CCP(=S)(CC)C(=S)NN | 5.6 |
| CSc1cc(C)ncn1 | 3.25 |
| NC(=O)CCc1ccncc1 | 5.58 |
| CC[Si](C)(C)CN | 10.7 |
| Cc1cccc(Nc2ccccc2)c1 | 0.92 |
| Cc1cccc(NCCS)c1 | 4.68 |
| Cc1ccc(Nc2ccccc2)cc1 | 1.16 |
| [O-]c1cc2nc(c1)COCCOCCSCCOCCOC2 | 10.1 |
| CCc1ncc[nH]1 | 8.05 |
| O/C(=C/c1ccncc1)c1ccccc1 | 6.21 |
| c1ccc2c(c1)C1CCN2C1 (stereo unspecified) | 7.1 |
| CC1CNCc2ccccc2OCCOc2ccccc2CN1 (stereo unspecified) | 9.41 |
| CN1C[C@@H](C(=O)[O-])C[C@@]2(O)c3cccc4[nH]cc(c34)C[C@H]12 | 9 |
| Cc1cccc(C)c1/C(=N/CCCN(C)C)c1ccccc1 | 8.7 |

| SMILES | pKa |
| --- | --- |
| Nc1ccc(S(=O)(=O)Nc2cnccn2)cc1 | 1.77 |
| CNc1nc(C)nc2nc[nH]c12 | 5.08 |
| CCN(CC)CCOCCN(CC)CC | 10.1 |
| NC[C@@H](O)[C@H]1NC(N)=[NH+][C@@H]1C(=O)[O-] | 9.3 |
| Cc1ccc(N)c(C)c1 | 4.75 |
| Ic1cccc(C2NCCS2)c1 (stereo unspecified) | 4.93 |
| Cc1ccc(Cl)cc1/C(=N/CCCN(C)C)c1ccccc1 | 8.8 |
| NCCc1c[nH]cn1 | 9.87 |
| Cc1ccc(C2CN2)cc1 (stereo unspecified) | 6.76 |
| C[C@H](N)[C@H](O)c1ccc(O)cc1 | 8.69 |
| CC(C)c1cccnc1 | 5.72 |
| Cc1ccc(NC(=O)CN2CCCCC2)cc1 | 7.85 |
| NNC(=O)c1ccccc1[NH3+] | 1.85 |
| Cn1ccc(N)n1 | 3.81 |
| N#CC(C#N)=NNc1cccc(Cl)c1Cl | -0.71 |
| CN1CCCC1c1cccnc1 (stereo unspecified) | 8.06 |
| Cc1ccccc1NN=C(C#N)C#N | -0.84 |
| CCCCCNCc1ccc(C)cc1 | 10.1 |
| CC(=O)Nc1ccccn1 | 4.09 |
| CN(C)c1ccc([N+](C)(C)C)cc1 | 2.64 |
| CSc1ccccn1 | 3.62 |
| CN(CC[NH3+])CC[NH+](C)C | 3.19 |
| C=C(C(=O)O[C@H]1C[C@@H]2[C@@H]3O[C@@H]3[C@H](C1)N2C)c1ccccc1 | 7.72 |

| SMILES | pKa |
| --- | --- |
| CCOC(=O)[C@H](C)N | 7.8 |
| CC[NH+](CC)Cc1cn2nc(-c3ccccc3)cc(C)c2n1 | 2.2 |
| COc1ccc2ncccc2c1 | 5.05 |
| c1nc(NC2CCCCC2)c2ncn(C3CCCCC3)c2n1 | 4.4 |
| Nc1ccc2c(N)c3ccccc3nc2c1 | 11.5 |
| Cn1c(-c2ccccn2)[nH+]c2ccccc21 | -1.27 |
| CC1[C@H](N)[C@H]1[NH3+] (stereo partly specified) | 5.9 |
| CCOC(=O)CCCc1ccccn1 | 5.32 |
| CN(C)CCN(C)CCN(C)C | 9.55 and 9.4 |
| C=CCOc1nc(N)nc(N)n1 | 3.43 |
| CCN1CCC=C1C | 11.9 |
| COc1ccc(-c2cnc(-c3ccc(N)cc3)o2)cc1 | 3.22 |
| CCCCCCCCCCCCCCCC[NH+](CCCCCCCCCCCCCCCC)CCCn1ccnc1 | 4.4 |
| c1cncc(-c2ccco2)c1 | 4.62 |
| C(=C/c1ccncc1)/c1ccncc1 | 5.57 |
| N[C@H]1CCCC[C@@H]1[NH3+] | 6.71 |
| COc1ccc2c(c1)NCC[NH2+]2 | 1.93 |
| CC1(C)CCC(C2CCC(C)(C)N2)N1 (stereo unspecified) | 10.3 |
| Nn1nnnc1-c1ccccc1 | -0.62 |
| Cn1c(-c2ccccc2[O-])nc2ccccc21 | 8.92 |
| Nc1ccc2c(c1Br)CCCC2 | 3.05 |
| Cn1cccc1-c1cccnc1 | 4.73 |
| CN(C(=O)c1ccccc1)c1ccncc1 | 4.68 |

| SMILES | pKa |
| --- | --- |
| CCCC(=O)C1(c2cccc(O)c2)CCN(C)CC1 | 8.62 |
| Oc1ccc2nc3ccccc3cc2c1 | 5.52 |
| CCCCCCCCN | 10.8 |
| CSc1nc2ncncc2[nH]1 | 2.95 |
| O/N=C(/NO)c1ccccc1 | 3.8 |
| C/C(=N\c1ccccc1)Nc1ccccc1 | 8.3 |
| C1CCN(CCC[NH+]2CCCCC2)CC1 | 7.97 |
| Nc1nnnn1-c1cccc(Cl)c1 | 0.7 |
| N/C(C/C(N)=N/O)=N\O | 4.77 |
| Clc1ccc(-c2ncc(-c3ccccc3)o2)cc1 | 0.41 |
| Cn1c(=S)ccc2ccccc21 | -1.6 |
| Nc1n[nH]c(N)c1/N=N/c1ccc(O)cc1 | 3.48 |
| [O-]c1ccccn1 | 11.7 |
| Cc1nc(C(=O)[O-])cs1 | 3.9 |
| Cc1cc(N)ccc1[N+](=O)[O-] | 1.64 |
| O=C([O-])c1nccc2ccccc12 | 4.97 |
| Cc1c(Br)cc(N)cc1Br | 2.87 |
| CCN(CC)CC(=O)Nc1cc(C)cc(C)c1 | 8.01 |
| Nc1ccnc2c1ncn2CCOCP(=O)([O-])O | 5.52 |
| CC(C)(C)c1cc(O)[nH]n1 | 2.9 |
| Oc1ccc(C2NCCS2)cc1 (stereo unspecified) | 5.5 |
| CNC(C(=O)[O-])C(C)C (stereo unspecified) | 9.9 |
